Source: article PMC11873639 (Acta Pharmaceutica Sinica. B, 2024)
Blank lines part the entries; values can stand above or below the compound they belong to.

Key:
LAD2 cells [1] = assay: β-hexosaminidase release induced by C48/80 in LAD2 cells; format: cell-based, Human; settings: for IC50: Homo sapiens, LAD2, read-out: Experimental pIC50 (converted); for antiallergic activity (β-hexosaminidase release inhibition): LAD2 cells, 10 μmol/L
LAD2 cells [2] = assay: LAD2 cell viability; format: cell-based, Human; settings: 10 μmol/L
mice [3] = assay: serum histamine release in vivo after C48/80; settings: mice, 1, 5 and 10 mg/kg
C57BL/6 mice = assay: OVA-induced antigen-induced pulmonary inflammation; format: in vivo; settings: AIPI mice
LAD2 cells [4] = assay: IL-8 release induced by C48/80; format: cell-based, Human; settings: LAD2 cells, 1, 5 and 10 μmol/L
MRGPRX2-HEK293 cells = assay: intracellular Ca2+ mobilization assay; format: cell-based; settings: MRGPRX2-HEK293 cells, 1, 5, 10 μmol/L
mice [5] = assay: skin toluidine blue staining; format: in vivo; settings: 10 mg/kg, C48/80
mice [6] = assay: paw swell and Evans blue extravasation induced by C48/80; format: in vivo; settings: gavage, 1, 5 and 10 mg/kg
mice [7] = assay: body temperature after C48/80; format: in vivo; settings: 10 mg/kg
LAD2 cells [8] = assay: histamine release in vitro induced by C48/80; format: cell-based, Human; settings: 1 to 10 μmol/L
MRGPRX2 = target: T1, MRGPRX2 (Homo sapiens, UniProt Q96LB1); settings: cited from earlier work
T1 sequence (Q96LB1 1-330): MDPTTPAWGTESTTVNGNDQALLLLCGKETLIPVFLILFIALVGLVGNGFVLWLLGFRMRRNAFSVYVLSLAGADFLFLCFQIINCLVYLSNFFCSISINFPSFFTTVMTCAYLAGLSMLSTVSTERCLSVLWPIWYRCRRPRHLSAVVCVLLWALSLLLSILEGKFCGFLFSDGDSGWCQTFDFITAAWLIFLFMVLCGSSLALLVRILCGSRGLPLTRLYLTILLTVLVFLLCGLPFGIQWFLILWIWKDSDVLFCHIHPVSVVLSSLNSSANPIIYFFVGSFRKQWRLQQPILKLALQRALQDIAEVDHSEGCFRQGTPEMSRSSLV

IC50 (LAD2 cells [1]): 7.94 µM
Structure (SMILES): O=C(Nc1ccccc1)Nc1cc(Br)cc(C(F)(F)F)c1 [Compound A-1023, 1-(3-bromo-5-(trifluoromethyl)phenyl)-3-phenylurea]

IC50 (LAD2 cells [1]): 1.23 µM
Structure (SMILES): O=C(Nc1ccc(C(F)(F)F)cc1)Nc1cccc(Br)c1 [Compound A-2023, 1-(3-bromophenyl)-3-(4-(trifluoromethyl)phenyl) urea]
cytotoxicity on LAD2 cells (LAD2 cells [2]): much higher toxicity

IC50 (LAD2 cells [1]): 8.32 µM
Structure (SMILES): O=C(Nc1ccccc1)Nc1ccc(C(F)(F)F)cc1 [Compound A-3023]
antiallergic activity (β-hexosaminidase release inhibition) (LAD2 cells [1]; C48/80): much more potent than A-4023
cytotoxicity on LAD2 cells (LAD2 cells [2]): attenuated cytotoxicity

IC50 (LAD2 cells [1]): 21.9 µM
Structure (SMILES): O=C(Nc1ccccc1)Nc1cccc(Br)c1 [Compound A-5023]
antiallergic activity (β-hexosaminidase release inhibition) (LAD2 cells [1]; C48/80): no antiallergic activity
cytotoxicity on LAD2 cells (LAD2 cells [2]): no antiallergic activity or cytotoxicity

IC50 (LAD2 cells [1]): 0.17 µM
Structure (SMILES): O=C(Nc1ccc([N+](=O)[O-])cc1)Nc1ccc(C(F)(F)F)cc1 [Compound B-1023]
serum histamine release (mice [3]): reduced in a dose-dependent manner
Th2 cytokine (IL-5 and IL-13) release in BALF (C57BL/6 mice): obviously inhibited
airway hyperresponsiveness (AHR) triggered by Mch (C57BL/6 mice): suppressed the AHR
number of bronchoalveolar lavage fluid (BALF) cells (C57BL/6 mice): inhibited
lung lesions (HE, PAS, MASSON staining) (C57BL/6 mice; 5 mg/kg oral): exerted anti-AIPI effects
lung lesions (HE, PAS, MASSON staining) (C57BL/6 mice; 10 mg/kg oral): significantly attenuated the pathological changes, with a better effect than that of Dex
serum IgE release (C57BL/6 mice; 10 mg/kg oral): only partially weakened IgE release
IL-8 release induced by C48/80 (LAD2 cells [4]): reduced the IL-8 release
C48/80-induced intracellular calcium mobilization (MRGPRX2-HEK293 cells): dose-dependently reduced
local skin mast cell deformation and degranulation (toluidine blue) (mice [5]): reduced mast cell deformation and degranulation
hindpaw swelling and Evans blue exudation rates (mice [6]): decreased in a dose-dependent manner
inhibition of β-hexosaminidase release (LAD2 cells [1]; LAD2 cells, 1, 5 and 10 μmol/L, C48/80): the most potential antiallergic ability
body temperature drop induced by C48/80 (mice [7]): significantly attenuated the body temperature drop
histamine release from LAD2 cells induced by C48/80 (LAD2 cells [8]): inhibited the histamine release
cytotoxicity on LAD2 cells (LAD2 cells [2]): nontoxic

IC50 (LAD2 cells [1]): 0.363 µM
Structure (SMILES): O=C(Nc1ccc(C(F)(F)F)cc1)Nc1cccc([N+](=O)[O-])c1 [Compound B-2023]

IC50 (LAD2 cells [1]): 0.832 µM
Structure (SMILES): O=C(Nc1ccc([N+](=O)[O-])cc1)Nc1cccc(C(F)(F)F)c1 [Compound B-3023]

IC50 (LAD2 cells [1]): 0.288 µM
Structure (SMILES): O=C(Nc1cccc([N+](=O)[O-])c1)Nc1cccc(C(F)(F)F)c1 [Compound B-4023]

Continued, compound first:

Structure (SMILES): O=C(Nc1ccccc1)Nc1cccc(C(F)(F)F)c1 [Compound A-4023]
cytotoxicity on LAD2 cells (LAD2 cells [2]): attenuated cytotoxicity

Structure (SMILES): O=C(Nc1ccc(C(F)(F)F)cc1)Nc1ccc(S(=O)(=O)O)cc1 [Compound B-6023]
antiallergic activity (β-hexosaminidase release inhibition) (LAD2 cells [1]; C48/80): inactivity

Structure (SMILES): C[C@@H]1C[C@H]2[C@@H]3CCC4=CC(=O)C=C[C@]4(C)[C@@]3(F)[C@@H](O)C[C@]2(C)[C@@]1(O)C(=O)CO [Dexamethasone, reference compound]
airway hyperresponsiveness (AHR) triggered by Mch (C57BL/6 mice): suppressed the AHR
lung lesions (HE, PAS, MASSON staining) (C57BL/6 mice; dose not given): improved lung lesions
serum IgE release (C57BL/6 mice; dose not given): almost completely inhibited the excessive release of IgE

Structure (SMILES): CC(C)=CCOc1c2occc2cc2ccc(=O)oc12 [imperatorin]
IC50 (MRGPRX2): 50 µM

Structure (SMILES): C[C@H]1O[C@@H](O[C@H]2CC[C@@]3(C)[C@@H](CC[C@]4(C)[C@@H]3C=C[C@]35OC[C@@]6(CCC(C)(C)C[C@H]63)[C@@H](O)C[C@]54C)[C@]2(C)CO)[C@H](O)[C@@H](O[C@@H]2O[C@H](CO)[C@@H](O)[C@H](O)[C@H]2O)[C@H]1O [saikosaponin A]
IC50 (MRGPRX2): 640 µM
